Reference: patent US8513236B2 (Laurus Labs Private Limited, priority 2010, dated 2013)
“Also recorded” adds a separate entry of the source.

Tests used:
hyperglycemic rats = details: cited from earlier work
[1] = Relative humidity stability at ambient temperature, analyzed by XRPD; type: physicochemical
Text: Upon completion of the duration allowed, the samples were immediately analyzed by XRPD.

[2] = Slurrying in water, resulting solid form; type: physicochemical; details: for result of slurrying in water: three days
[3] = Intrinsic dissolution in 900 mL water at ambient conditions (attempted); type: physicochemical; details: after 30 minutes
Description: Intrinsic dissolution in 900 mL water at ambient conditions was also attempted. […] Therefore, a concentration vs. time and intrinsic dissolution rate value were unobtainable at these conditions.

cancer cell lines = details: in vitro; cited from earlier work
[4] = cited from earlier work
[5] = cited from earlier work; remark: listed apart in the source

For `CN(C)C(=N)N=C(N)N` [metformin], the “decreased plasma glucose levels” value (hyperglycemic rats) is listed as 48%.
In the case of `Cn1c(=O)c2c(ncn2C)n(C)c1=O` [caffeine], the Results ([1]; 75% RH, 1 week) is reported as “caffeine anhydrous”, the Results ([1]; 75% RH, 4 weeks) is reported as “does not display signs of conversion; also recorded: caffeine anhydrous” and the Results ([1]; 75% RH, 1 day) is reported as “caffeine anhydrous”. For the same compound, the Results ([1]; 75% RH, 3 days) was “caffeine anhydrous”, the Results ([1]; 94% RH, 1 week (7 days)) was “caffeine hydrate” and the Results ([1]; 94% RH, 4 weeks) was “caffeine hydrate”. The Results ([1]; 94% RH, 1 day) was “caffeine anhydrous”, the Results ([1]; 94% RH, 3 days) was “caffeine anhydrous/caffeine hydrate” and the conversion to hydrate ([1]; 94% RH, between one and three days) was “partial conversion”. For the same compound, the Results ([1]; 98% RH, 1 week) was “caffeine hydrate”, the Results ([1]; 98% RH, 4 weeks) was “caffeine hydrate” and the Results ([1]; 98% RH, 1 day) was “caffeine hydrate”. The Results ([1]; 98% RH, 3 days) was “caffeine hydrate” and the conversion to hydrate ([1]; 98% RH, in less than one day) was “converts to caffeine hydrate”.
For “pterostilbene:carbamazepine [cocrystal 2]”, the “result of slurrying in water” value [2] was “stable”.
With “pterostilbene:glutaric acid [cocrystal 3]” the “XRPD results when slurrying in water at ambient” value ([2]; after 5 minutes) was “crystalline pterostilbene”, the “XRPD results, intrinsic dissolution” value [3] was “crystalline pterostilbene” and the Results ([1]; 75% RH, 4 weeks) was “no dissociation”. For the same compound, the Results ([1]; 94% RH, 4 weeks) was “no dissociation” and the Results ([1]; 98% RH, 4 weeks) was “no dissociation”.
For `COc1cc(/C=C/c2ccc(O)cc2)cc(OC)c1.Cn1c(=O)c2c(ncn2C)n(C)c1=O` [cocrystal 1, pterostilbene:caffeine], the Results ([1]; 75% RH, 4 weeks) was “no dissociation”, the Results ([1]; 94% RH, 4 weeks) was “no dissociation” and the Results ([1]; 98% RH, 4 weeks) was “no dissociation”.
For `COc1cc(/C=C/c2ccc(O)cc2)cc(OC)c1.Cn1c(=O)c2c(ncn2C)n(C)c1=O` [cocrystal 1 (Form I), pterostilbene:caffeine], the Results ([2]; slurry, 2 days) was “cocrystal 1 (Form I), no caffeine hydrate”, the “result of slurrying in water” value [2] was “precipitation of pterostilbene” and the Results ([1]; 75% RH, 1 week) was “cocrystal 1 (Form I), no caffeine hydrate”. For the same compound, the Results ([1]; 75% RH, 1 week, additional stress at 98% RH) was “cocrystal 1 (Form I), no caffeine hydrate”, the Results ([1]; 75% RH, 4 weeks) was “cocrystal 1 (Form I), no caffeine hydrate” and the Results ([1]; 75% RH, 1 day) was “cocrystal 1 (Form I), no caffeine hydrate”. The Results ([1]; 75% RH, 1 day, additional stress at 98% RH) was “cocrystal 1 (Form I), no caffeine hydrate”, the Results ([1]; 75% RH, 3 days) was “cocrystal1 (Form I), no caffeine hydrate” and the Results ([1]; 94% RH, 1 week (7 days)) was “cocrystal 1 (Form I), no caffeine hydrate”. For the same compound, the Results ([1]; 94% RH, 4 weeks) was “cocrystal 1 (Form I), no caffeine hydrate”, the Results ([1]; 94% RH, 1 day) was “cocrystal 1 (Form I), no caffeine hydrate” and the Results ([1]; 94% RH, 3 days) was “cocrystal 1 (Form I), no caffeine hydrate”. The Results ([1]; 94% RH, 7 days, additional stress at 98% RH, 4 weeks) was “cocrystal 1 (Form I), no caffeine hydrate”.
For `COc1cc(/C=C/c2ccc(O)cc2)cc(OC)c1` [pterostilbene, trans-3,5-dimethoxy-4′-hydroxystilbene], the “cytotoxic activity against cancer cell lines” value (cancer cell lines) is given as “cytotoxic activity”, the solubility in water [4] is given as “poor solubility in water” and the Results ([1]; 75% RH, 4 weeks) is given as “pterostilbene (Form I)”. The Results ([1]; 94% RH, 4 weeks) was “pterostilbene (Form I)”, the Results ([1]; 98% RH, 4 weeks) was “pterostilbene (Form I)” and the bioavailability [5] was “poor bioavailability”.
